Results as given in US20230248775A1, “GENETIC MODIFICATION OF MAMMALIAN CELLS TO CONFER RESISTANCE TO CSF1R ANTAGONISTS” (THE REGENTS OF THE UNIVERSITY OF CALIFORNIA, priority 2021, published 2023).
Entries after “also recorded” stand apart in the source; their conditions may differ.

What was measured:
G795A iPSC-microglia [1] = experiment: LIVE/DEAD two-color viability/cytotoxicity, G795A microglia; format: cell-based, human; settings: 500 nM or 1 uM, 24 hours
Experimental: (§1) FIGS. 5A and 5B show G795A iPSC-derived microglia are resistant to CSF1R antagonist-induced cell death. As cells can die from processes other than caspase-mediated apoptosis, it is important to determine whether the G795A mutation provides a more broad-based resistance to any form of cell death induced by CSF1R antagonists, Therefore, G795A and wild-type (WT) iPSC-microglia were treated for 24 hours with either 500 nM (FIG, 5A) or 1 uM (FIG. 5B) of DMSO vehicle control or one of four CSF1R antagonists; PLX3397, PLX5622, Edicotinib, and BLZ945. The percent of live versus dead cells was then quantified using a two-color viability/cytotoxicity approach (Thermo L3224; LIVE/DEAD™ Viability/Cytotoxicity Kit). Very few dead microglia are observed 24 hours after treatment with DMSO. […] Live cells are denoted with a circle, […]

[2] = tested on: wild-type (WT) unedited human iPSC-microglia; experiment: Cell death assay (fluorogenic caspase 3/7, IncuCyte time-lapse imaging), WT microglia; format: cell-based; settings: 250 nM, 500 nM, 1 μm, 24 hours, compared to DMSO control
From the text: (§2) FIGS. 4A, 4B, 4C, 4D, and 4E show human stem cell-derived microglia are also susceptible to and killed by CSF1R inhibition in vitro. […] Images captured on Incucyte S3 live-cell imager. […] Images captured on Incucyte S3 live-cell imager. […] Images captured on Incucyte S3 live-cell imager. […] Images captured on Incucyte S3 live-cell imager. […] For all panels, n=4 images in six independent wells were quantified. Data represented as mean values±SEM.
(§3) Strategy 1: A crystal structure of the CSF1R receptor bound to an antagonist (PMID: 31434879) to predict amino acid substitutions that may sterically hinder the binding of CSF1R antagonists while not impairing the normal binding of ATP into the same binding pocket. The crystal structure of PLX5622 bound to human CSF1R was obtained and the ATP binding pocket was examined (FIG. 7A). Through molecular modeling single amino acid changes were predicted that would likely impair the binding of PLX5622 or PLX3397 or other CSF1R antagonists while not disrupting normal ATP binding to CSF1R. […] Other mutations could also be explored to prevent binding (FIG. 7D). […] The resulting iPSCs were then differentiated into microglia and exposed to varying concentrations of either PLX3397 or PLX5622. To detect microglial cell death (apoptosis) a caspase-3/7 fluorogenic reporter was used. […] FIG. 4F provided representative images of cell density (phase-contrast microscopy, 1st column) and fluorescent Caspase-3/7 activity (2nd column) across each dose of PLX3397 and PLX5622.
(§4) Resistance to each of the CSF1R inhibitors tested was quantified using a fluorogenic caspase 3/7 detector (Essen BioScience) and time-lapse imaging over 24 hours.
(§5) Cell death assay: iPS-microglia were plated at 70K cells per 96-well plate (6 wells per line per condition). At time 0, all microglia were treated with IncuCyte Caspase-3/7 Green Apoptosis Assay Reagent 1:1000. Cells were maintained in the described medium: fresh complete medium+0.1% DMSO, complete media+250 nM PLX3397, complete medium+500 nM PLX3397, complete medium+[…] PLX3397, complete medium+250 nM PLX5622, complete medium+500 nM PLX5622, complete medium +[…] PLX5622, complete medium+250 nM Edicotinib, complete medium+500 nM Edicotinib, complete medium +1 μm Edicotinib, complete medium+250 nM BLZ945, complete medium+500 nM BLZ945, complete medium +1 μm BLZ945. Four 20× images per well were collected every hour for 24 hours. Using IncuCyte 2020B software, image masks for phase confluence (visually gated out apoptotic cells) as well as caspase 3/7 signal (green) were generated. Graphs display caspase normalized to phase confluence, completed with 3 lines: WT, G795A, G795C (see FIGS. 4A, 4B, 4C, 4D, and 4E).

G795A iPSC-microglia [3] = experiment: Cell death assay (fluorogenic caspase 3/7, IncuCyte time-lapse imaging), G795A microglia; format: cell-based, human; settings: 250 nM, 500 nM, 1 μm, 24 hours, compared to DMSO control
From the text: as §2, §3, §4, §5

G795C iPSC-microglia = experiment: Cell death assay (fluorogenic caspase 3/7, IncuCyte time-lapse imaging), G795C microglia; format: cell-based, human; settings: 250 nM, 500 nM, 1 μm, 24 hours, compared to DMSO control
From the text: as §2, §3, §4, §5

[4] = tested on: wild-type (WT) iPSC-microglia; experiment: LIVE/DEAD two-color viability/cytotoxicity, WT microglia; format: cell-based, human; settings: 500 nM or 1 uM, 24 hours
Experimental: as §1

wild-type human xMGs = experiment: PLX3397 chow treatment of xenotransplanted mice, wild-type xMGs (IBA-1/Ku80/Ki67 immunohistochemistry); format: in vivo, mouse; settings: 600 mg/kg of PLX3397 in rodent chow ad libitum, 4 weeks
From the text: (§6) FIGS. 11A, 11B, 11C, 11D, 11E, 11F, 11G, 11H, 11I, and 11J show G795A iPSC-derived microglia are resistant to CSF1R […] treatment and enable robust engraftment of human microglia within the adult mammalian brain. Xenotransplantation-compatible mice received bilateral stereotactic intrahippocampal injections of 500,000 iPSC-derived human microglia (xMGs) at 2-months of age. Mice received xMGs differentiated from either a homozygous CSF1R-resistant G795A human iPSC line or an isogenic unmodified Wild-Type human i PSC. At fours of age, mice were treated with 600 mg/kg of PLX3397 in rodent chow ad libitum for 4 weeks duration. Mice were then sacrificed, and half-brains were examined by fluorescent immunohistochemistry and confocal microscopy.

G795A xMGs = experiment: PLX3397 chow treatment of xenotransplanted mice, G795A xMGs (IBA-1/Ku80/Ki67 immunohistochemistry); format: in vivo, human; settings: 600 mg/kg of PLX3397 in rodent chow ad libitum, 4 weeks
From the text: as §6

[5] = tested on: MUT2 (i.e., G795C) microglia; experiment: RNA-seq transcriptomic response to PLX5622, MUT2 (G795C) microglia; format: cell-based, human; settings: 24-hour treatment, compared to DMSO-treated cells
From the text: (§7) FIGS. 2A, 2B, 2C, 2D, 2E, and 2F show selected CSF1R mutations have little effect on transcriptomic signature while simultaneously imparting resistance to PLX5622.

[6] = tested on: MUT1 (i.e., G795A) microglia; experiment: RNA-seq transcriptomic response to PLX5622, MUT1 (G795A) microglia; format: cell-based, human; settings: 24-hour treatment, compared to DMSO-treated cells
From the text: as §7

WT microglia = experiment: RNA-seq transcriptomic response to PLX5622, WT microglia; format: cell-based, human; settings: 24-hour treatment, compared to DMSO-treated cells
From the text: as §7

| Structure (SMILES) | cell death (percent of live versus dead cells) (G795A iPSC-microglia [1]) | caspase 3/7 levels (cell death / apoptosis) [2] | caspase 3/7 levels (cell death / apoptosis) (G795A iPSC-microglia [3]) | caspase 3/7 levels (cell death / apoptosis) (G795C iPSC-microglia) | cell death (percent of live versus dead cells) [4] | survival of transplanted human xMGs in mouse brain (wild-type human xMGs) | survival / expansion of transplanted human xMGs in mouse brain (G795A xMGs) | transcriptomic alterations (FDR≤0.05; log2(FC)≥±1) [5] | transcriptomic alterations (FDR≤0.05; log2(FC)≥±1) [6] | transcriptomic alterations (FDR≤0.05; log2(FC)≥±1) (WT microglia) |
| --- | --- | --- | --- | --- | --- | --- | --- | --- | --- | --- |
| CNC(=O)c1cc(Oc2ccc3nc(N[C@@H]4CCCC[C@H]4O)sc3c2)ccn1 [BLZ945] | little-to-no cell death | significant levels of increased caspase | no significant increase in caspase levels | no significant increase in caspase levels | substantial cell death |  |  |  |  |  |
| CC1(C)CC=C(c2nc(C3CC(C)(C)OC(C)(C)C3)ccc2NC(=O)c2nc(C#N)c[nH]2)CC1 [Edicotinib] | little-to-no cell death | significant levels of increased caspase | no significant increase in caspase levels | no significant increase in caspase levels | substantial cell death |  |  |  |  |  |
| FC(F)(F)c1ccc(CNc2ccc(Cc3c[nH]c4ncc(Cl)cc34)cn2)cn1 [PLX3397] | little-to-no cell death | robust dose-dependent induction of apoptosis; also recorded: significant levels of increased caspase | complete resistance to cell death; also recorded: no significant increase in caspase levels | complete resistance to cell death; also recorded: no significant increase in caspase levels | substantial cell death | only a handful of wild-type human xMGs survive | proliferate and expand from the initial injection sites |  |  |  |
| COc1ncc(F)cc1CNc1ccc(Cc2c[nH]c3ncc(C)cc23)c(F)n1 [PLX5622] | little-to-no cell death | robust dose-dependent induction of apoptosis; also recorded: significant levels of increased caspase | complete resistance to cell death; also recorded: no significant increase in caspase levels | complete resistance to cell death; also recorded: no significant increase in caspase levels | substantial cell death |  |  | failed to significantly alter gene expression | failed to significantly alter gene expression | induced significant transcriptomic alterations |
